≈ marks a conversion by molar mass, not a printed value. Like-named read-outs stand apart in the source and are kept apart here.
Columns and labels:
[1] = target: purified recombinant human LDHA protein (Homo sapiens, UniProt P00338); assay: Lactate dehydrogenase-A (LDHA) inhibition assay, NADH consumption; type: biochemical; conditions: for inhibition at 100 µg/mL / inhibition at 200 µg/mL / IC50: LDHA; for inhibition at 100 µg/mL: read-out: Mean Inhibition % at 100 µg/ml ± SD; for inhibition at 200 µg/mL: read-out: Mean Inhibition % at 200 µg/ml ± SD; for fold by which (6e) is more potent than the labelled compound (LDHA inhibition efficiency): comparator 6e
Protocol: LDHA inhibition activity was investigated by measuring the amounts of consumed NADH as described by Kim and his group. Briefly, different concentrations of each compound (50, 100, 200, and 300 µg) were incubated in buffer containing 20 mM of HEPES-K+ (pH 7.2), 20 μM of NADH, 2 mM of pyruvate, and 10 ng of purified recombinant human LDHA protein for 10 min. The fluorescence of NADH, which has an excitation wavelength of 340 nm and emission wavelength of 460 nm, was detected using a Spectrofluorometer.

COX-2 = target: T1, COX-2 (Homo sapiens, UniProt P35354); assay: Cyclooxygenase (COX-2) inhibition assay (Cayman kit 701080); type: biochemical; conditions: for inhibition at 100 µg/mL: read-out: Mean Inhibition % at 100 µg/ml ± SD; for inhibition at 200 µg/mL: read-out: Mean Inhibition % at 200 µg/ml ± SD
T1 construct: purchased Cayman Chemical Company 701080
T1 sequence (P35354 18-604): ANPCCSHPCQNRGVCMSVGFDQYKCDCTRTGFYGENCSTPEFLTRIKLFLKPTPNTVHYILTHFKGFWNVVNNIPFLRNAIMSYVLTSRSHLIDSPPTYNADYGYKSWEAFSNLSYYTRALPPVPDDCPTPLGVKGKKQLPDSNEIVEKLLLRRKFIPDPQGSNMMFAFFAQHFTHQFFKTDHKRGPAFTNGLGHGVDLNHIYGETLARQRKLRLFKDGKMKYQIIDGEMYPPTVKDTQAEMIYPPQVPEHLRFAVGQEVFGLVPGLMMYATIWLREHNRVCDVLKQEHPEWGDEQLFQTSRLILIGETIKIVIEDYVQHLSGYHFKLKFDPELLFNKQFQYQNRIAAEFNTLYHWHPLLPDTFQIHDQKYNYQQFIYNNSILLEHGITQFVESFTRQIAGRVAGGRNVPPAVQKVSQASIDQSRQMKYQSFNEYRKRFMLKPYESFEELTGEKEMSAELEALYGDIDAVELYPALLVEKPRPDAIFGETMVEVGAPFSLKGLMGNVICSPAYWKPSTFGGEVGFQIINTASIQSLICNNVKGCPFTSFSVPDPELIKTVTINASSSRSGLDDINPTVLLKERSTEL
Protocol: The compounds were resuspended in 100% DMSO at a final concentration of 10 mg/mL. […] The inhibitory activity was expressed as the inhibition percentage, which was determined by comparison with a control experiment. IC50 values were deduced from the curves.

[2] = tested on: Escherichia coli (ATCC 25922); assay: Antibacterial activity, CFU viability; type: cell-based; conditions: ATCC25922, mean of two determinations, read-out: Mean IC50 ± SD
Protocol: (§1) Pure standard microbial isolates collected from King Khaled University Hospital were tested in this study, including Enterococcus faecalis (ATCC 29122) as Gram positive bacteria and Escherichia coli (ATCC 25922) and Bacteroides fragilis (ATCC 25285) as Gram negative bacteria. Fresh cultures of each microorganism were grown on nutrient agar plates (Oxoid, UK), of which small inoculums were suspended in 5 mL nutrient broth for bacterial suspension preparation of 0.5MacFarland. Bacterial viability was investigated by estimating the colony-forming unit (CFU) ability of the bacteria incubated at different time intervals without or with appropriate amounts of the compound that were mixed with 2 × 10^7 CFU/mL in sterile BHI broths and were incubated under shaking for 60 min at 37 °C. Samples were serially diluted into sterile BHI broths, streaked onto media agar plates, and incubated for 24 h at 37 °C. The antibacterial potency of tested compounds was expressed as the residual number of CFU with reference to the initial inoculums. […] Ampicillin (1 mg/mL) was used as a positive standard reference.

[3] = tested on: Enterococcus faecalis (ATCC 29122); assay: Antibacterial activity, CFU viability; type: cell-based; conditions: ATCC29122, mean of two determinations, read-out: Mean IC50 ± SD
Protocol: as §1

[4] = tested on: Bacteroides fragilis (ATCC 25285); assay: Antibacterial activity, CFU viability; type: cell-based; conditions: ATCC25285, mean of two determinations, read-out: Mean IC50 ± SD
Protocol: as §1

[5] = In vitro cytotoxicity assay (LDH release); type: cell-based, human; conditions: human, 200 µg/ml, 24 h
Protocol: The best-in-class compounds, including (4c), (4d), (6a), (6b), (6d), (6e), and (6g), which were recognized as antimicrobial and enzymatic inhibitors, were further examined for their cytotoxic effects on LoVo and HCT-116 cells of human colon cancer. This was carried out by determining the residual percentages of viable cells after being treated with the compounds at different concentrations (50, 100, 200, and 400 µg/mL), using triton X-100 (at concentration of 0.1%) in the assay medium and the assay as the positive and negative controls, respectively.
Samples were diluted in Dulbecco’s modified Eagles medium, consisting of 10% fetal bovine serum, added to cells grown and cultured for 24 h in a 5% CO2-humidified incubator at 37 °C. Then, the activity of lactate dehydrogenase released from damaged cells was determined in the collected supernatant aliquots using an ELISA end-point assay (Benchmark Plus, Bio-Rad, CA, USA). The 0.1% Triton X-100 in the assay medium and the assay medium only were used as positive and negative controls, respectively. Cell viability, expressed as a relative percentage of the OD values (at 550 nm) for compound-treated cells (final concentration of 200 µg) and the control, is shown as mean ± SD (n = 2).

[6] = HCT-116 colon cancer cells, read-out: Mean % Cell Viability ± SD CRC-HCT-116 cells
[7] = LoVo colon cancer cells, read-out: Mean % Cell Viability ± SD CRC-LoVo cells

SMILES	inhibition at 100 µg/mL [1]	inhibition at 200 µg/mL [1]	inhibition at 100 µg/mL (COX-2)	inhibition at 200 µg/mL (COX-2)	IC50 [2]	IC50 [3]	IC50 [4]	IC50 [1]	IC50 (COX-2)	viability at 24 h, 200 µg/ml [5, 6]	viability at 24 h, 200 µg/ml [5, 7]	viability at 24 h, 200 µg/mL [5, 6]	viability at 24 h, 200 µg/mL [5, 7]	fold by which (6e) is more potent than the labelled compound (LDHA inhibition efficiency) ([1]; 200 µg/mL)	fold decrease of LDHA inhibition efficiency relative to (6g) ([1]; 200 µg/mL, comparator 6g)
O=c1[nH]c2ccccc2[nH]c1=O [Compound 1]	33.8 ± 2.55%	68.2%	30.9 ± 2.62%	48.1%	25.9 ± 0.778 µg/mL (≈ 159 µM)	20.2 ± 1.06 µg/mL (≈ 125 µM)	19.4 ± 1.48 µg/mL (≈ 119 µM)	–	–	–	–	–	–	–	–
NN=c1[nH]c2ccccc2[nH]c1=O [Compound 2, 3-hydrazineylidene-3,4-dihydro quinoxalin-2(1H)-one]	26.7 ± 1.84%	47.1%	7.55 ± 0.778%	15.4 ± 2.19%	13.7 ± 1.34 µg/mL (≈ 77.5 µM)	13.6 ± 0.566 µg/mL (≈ 77.2 µM)	14.5 ± 0.99 µg/mL (≈ 82.3 µM)	–	–	–	–	–	–	–	–
COc1ccc2cc(/C=N/n3c(C)nc4ccc(Cl)cc4c3=O)ccc2c1 [Compound 6c, 6-Chloro-3-oro-3-[(6-methoxy-naphthalen-2-ylmethylene)-amino]-2-methyl-3H-quinazolin-4-one]	13.3 ± 0.919%	23%	23.8 ± 2.55%	36.9 ± 1.63%	26.9 ± 1.56 µg/mL (≈ 71.2 µM)	20.4 ± 1.2 µg/mL (≈ 54.1 µM)	30.1 ± 0.636 µg/mL (≈ 79.5 µM)	–	–	–	–	–	–	3.3 fold	–
CC1(C)S[C@@H]2[C@H](NC(=O)[C@H](N)c3ccccc3)C(=O)N2[C@H]1C(=O)O [Ampicillin, ampicillin, reference compound]	–	–	–	–	20.2 µg/mL (≈ 58 µM)	12.8 µg/mL (≈ 36.5 µM)	16.1 µg/mL (≈ 46.2 µM)	–	–	–	–	–	–	–	–
CCc1ccc(/C=N/n2c(C)nc3ccc(Cl)cc3c2=O)s1 [Compound 6f, 6-Chloro-3-oro-3-[(5-ethyl-thiophen-2-ylmethylene)-amino]-2-methyl-3H-quinazolin-4-one]	27.1 ± 1.48%	40%	10 ± 1.41%	20.7%	33.4 ± 3.39 µg/mL (≈ 101 µM)	22.6 ± 0.636 µg/mL (≈ 68 µM)	27.9 ± 1.56 µg/mL (≈ 84.1 µM)	–	–	–	–	–	–	1.9 fold	2.2 fold
Cc1nc2ccc(Cl)cc2c(=O)n1N [Compound 5b]	11.8 ± 1.06%	21.2%	5.7 ± 0.99%	9.05%	13.6 ± 1.48 µg/mL (≈ 64.6 µM)	27.5 ± 2.12 µg/mL (≈ 131 µM)	37 ± 2.83 µg/mL (≈ 176 µM)	–	–	–	–	–	–	3.6 fold	–

The next lines start with results.

inhibition at 100 µg/mL [1]	inhibition at 200 µg/mL [1]	inhibition at 100 µg/mL (COX-2)	inhibition at 200 µg/mL (COX-2)	IC50 [2]	IC50 [3]	IC50 [4]	IC50 [1]	IC50 (COX-2)	SMILES	viability at 24 h, 200 µg/ml [5, 6]	viability at 24 h, 200 µg/ml [5, 7]	viability at 24 h, 200 µg/mL [5, 6]	viability at 24 h, 200 µg/mL [5, 7]	fold by which (6e) is more potent than the labelled compound (LDHA inhibition efficiency) ([1]; 200 µg/mL)	fold decrease of LDHA inhibition efficiency relative to (6g) ([1]; 200 µg/mL, comparator 6g)
47.4 ± 3.96%	85%	14.4 ± 0.778%	28.9%	30.6 ± 2.62 µg/mL (≈ 99.1 µM)	10.8 µg/mL (≈ 35 µM)	28.2 ± 1.77 µg/mL (≈ 91.6 µM)	362 µM	–	O=C(O)c1ccc(/C=N/Nc2nc3ccccc3[nH]c2=O)cc1 [Compound 4d, 4-[(3-Oxo-3,4-dihydro-quinoxalin-2-yl)-hydrazonomethyl]-benzoic acid]	65.5 ± 3.54%	60 ± 4.24%	–	–	–	–
44.8 ± 2.9%	76.8%	57.9%	100%	15.7 ± 0.919 µg/mL (≈ 36.1 µM)	12.4 µg/mL (≈ 28.6 µM)	12.8 ± 0.919 µg/mL (≈ 29.4 µM)	–	222 µM	COc1cc(C=Nn2c(C)nc3ccc(Cl)cc3c2=O)ccc1OCc1ccccc1 [Compound 6e, 3-[(4-Benzyloxy-3-methoxy-benzylidene)-amino]-6-chloro-2-methyl-3H-quinazolin-4-one]	–	–	89 ± 2.83%	93.4 ± 4.81%	–	–
21.1 ± 2.19%	31.2%	30.3 ± 1.84%	54%	31.4 ± 1.48 µg/mL (≈ 91.3 µM)	18.2 ± 0.99 µg/mL (≈ 52.8 µM)	27.1 ± 1.84 µg/mL (≈ 78.7 µM)	–	–	COc1ccc2cc(C=NNc3nc4ccccc4[nH]c3=O)ccc2c1 [Compound 4e, 3-[N’-(6-Methoxy-naphthalen-2-ylmethylene)-hydrazino]-1H-quinoxalin-2-one]	–	–	–	–	–	–
27.4 ± 2.4%	35.4%	12.3 ± 0.919%	21.1%	13.6 ± 0.849 µg/mL (≈ 31.2 µM)	30.3 ± 2.4 µg/mL (≈ 69.5 µM)	40.6 ± 2.33 µg/mL (≈ 93.2 µM)	–	–	COc1cc(C=NNc2nc3ccccc3[nH]c2=O)cc(I)c1O [Compound 4b, 3-[N’-(4-Hydroxy-3-iodo-5-methoxy-benzylidene)-hydrazino]-1H-quinoxalin-2-one]	–	–	–	–	–	–
32 ± 2.55%	49.2%	37.1 ± 2.69%	69 ± 2.76%	18.2 ± 0.99 µg/mL (≈ 49.5 µM)	12.7 µg/mL (≈ 34.4 µM)	10.3 ± 1.2 µg/mL (≈ 28.2 µM)	–	–	COc1cc2nc(C)n(N=Cc3ccc(C(=O)O)cc3)c(=O)c2cc1OC [Compound 6b, 4-[(6,7-Dimethoxy-2-methyl-4-oxo-4H-quinazolin-3-ylimino)-methyl]-benzoic acid]	–	–	47 ± 2.83%	54.2 ± 2.47%	–	–
53.6%	89.8%	28.8 ± 2.47%	48.6 ± 3.75%	24.8 ± 1.77 µg/mL (≈ 78.5 µM)	17.2 ± 1.77 µg/mL (≈ 54.7 µM)	19.9 ± 2.26 µg/mL (≈ 63.1 µM)	334 µM	–	CCc1ccc(C=Nn2c(C)nc3ccc(F)cc3c2=O)s1 [Compound 6g, 3-[(5-Ethyl-thiophen-2-ylmethylene)-amino]-6-fluoro-2-methyl-3H-quinazolin-4-one]	–	–	86.5 ± 2.12%	88.2 ± 2.62%	–	–
40.6 ± 2.33%	64.2%	36.5 ± 3.46%	61.1%	12.7 ± 0.778 µg/mL (≈ 35.6 µM)	9.6 µg/mL (≈ 27 µM)	8.05 ± 0.778 µg/mL (≈ 22.7 µM)	–	–	COc1cc(C=NNc2nc3ccccc3[nH]c2=O)cc([N+](=O)[O-])c1O [Compound 4c, 3-[N’-(4-Hydroxy-3-methoxy-5-nitro-benzylidene)-hydrazino]-1H-quinoxalin-2-one]	–	–	77.3 ± 3.25%	72.2 ± 4.45%	–	–
20.3 ± 1.63%	28.2%	4.65 ± 0.495%	12.1%	15 ± 0.566 µg/mL (≈ 43.5 µM)	27 ± 2.83 µg/mL (≈ 78.3 µM)	13.3 ± 0.849 µg/mL (≈ 38.6 µM)	–	–	COc1cc(C=NNc2nc3ccccc3[nH]c2=O)cc(Cl)c1O [Compound 4a, 3-[N’-(3-Chloro-4-hydroxy-5-methoxy-benzylidene)-hydrazino]-1H-quinoxalin-2-one]	–	–	–	–	–	–

From publication PMC8197120, “Synthesis and Characterization of Some New Quinoxalin-2(1H)one and 2-Methyl-3H-quinazolin-4-one Derivatives Targeting the Onset and Progression of CRC with SAR, Molecular Docking, and ADMET Analyses” (Molecules, 2021)
